In ChEMBL document CHEMBL1201862, “PubChem BioAssay data set” (2004):
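1) Cells in 96-well plates. 2) Compound, 48 h, 5 concentrations. 3) Linear interpolation between surrounding doses. 4) Unreached endpoint = highest concentration. GI50 marks 50% less growth.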 Calls of active or inactive are those of the source. Rule as the data show it: active = GI50 up to about 1.1 µM and inactive = higher.

Columns and labels:
Assay in all cases: NCI-60 cell line screen, 48 h
A498 = system: A498
A549 = system: A549
ACHN = system: ACHN
BT-549 = system: BT-549
CCRF-CEM = system: CCRF-CEM
COLO 205 = system: COLO 205
EKVX = system: EKVX
Hs-578T = system: Hs-578T
MDA-MB-435 = system: MDA-MB-435
Malme-3M = system: Malme-3M
NCI-H226 = system: NCI-H226
NCI-H522 = system: NCI-H522
NCI/ADR-RES = system: NCI/ADR-RES
SN12C = system: SN12C
SNB-19 = system: SNB-19
SNB-75 = system: SNB-75
SNB-78 = system: SNB-78
T47D = system: T47D
U-251 = system: U-251
UACC-257 = system: UACC-257

Measured: GI50

O=NN(CCCl)C(=O)NCCCl [CARMUSTINE]
inactive: A498 102 µM | A549 103 µM | ACHN 83 µM | BT-549 79.3 µM | CCRF-CEM 18.7 µM | COLO 205 72.3 µM | EKVX 120 µM | Hs-578T 103 µM | MDA-MB-435 75.5 µM | Malme-3M 81.5 µM | NCI-H226 105 µM | NCI-H522 42.9 µM | NCI/ADR-RES 94.6 µM | SN12C 75.9 µM | SNB-19 68.4 µM | SNB-75 52.2 µM | SNB-78 88.9 µM | T47D 110 µM | U-251 52.1 µM | UACC-257 75.5 µM

CCOC(=O)CC1=N/C(=N/C(=N)N[N+](=O)[O-])SC1
inactive: A498 > 100 µM | A549 > 100 µM | ACHN > 100 µM | CCRF-CEM > 100 µM | COLO 205 > 100 µM | EKVX > 100 µM | Malme-3M > 100 µM | NCI-H226 > 100 µM | NCI-H522 > 100 µM | SN12C > 100 µM | SNB-19 > 100 µM | SNB-75 > 100 µM | SNB-78 > 100 µM | U-251 > 100 µM | UACC-257 > 100 µM
